SMILES strings stand for the structures.

Holding throughout (format): physicochemical
Series [1] is described as follows: Electrochemical impedance spectroscopy (PEIS), Z-fitting to ideal Randle equivalent circuit. To be noted: PEIS Z-fit.
A short description of series [2]: Permeability through AMVN anion-exchange membrane. To be noted: low ionic-conductivity AMVN membrane. The text has this:
Crossover of the TEMPO species is critical to RFB lifetime as it lowers the catholyte capacity through material loss and the anolyte capacity through chemical/electrochemical side reactions.

Series [3] is described as follows: Viscosity of solutions versus volumetric capacity. To be noted: compared with TMAP-TEMPO; reduced (uncharged) state. The text has this: When determining the maximum cycling concentration with the water-miscible i-TEMPODs, the active molecule solubility no longer limits volumetric capacity as the interaction between the dissolved species and the water molecules are very thermodynamically favorable, and each TEMPO dimer is able to dissolve with a minimal amount of coordinated water. Instead, the cycling concentration will be limited by the electrolyte viscosity and its relation to pumping energy cost. The viscosity of representative TEMPO monomer and dimer solutions was experimentally measured at various volumetric capacities in their reduced (uncharged) states. FIG. 35A compares the viscosity of the i-TEMPODs to previously known TEMPO monomers, which are designated “OH”, “Nine”, and “TMAP”. Descriptions of these monomers can be found in: T. Liu, X. Wei, Z. Nie, V. Sprenkle, W. Wang, A Total Organic Aqueous Redox Flow Battery Employing a Low Cost and Sustainable Methyl Viologen Anolyte and 4-HO-TEMPO Catholyte. Adv. Energy Mater. 6 (2016); T. Janoschka, N. Martin, M. D. Hager, U. S. Schubert, An Aqueous Redox-Flow Battery with High Capacity and Power. The TEMPTMA/MV System. Angew. Chemie—Int. Ed. 55, 14427-14430 (2016); and Y. Liu, M. A. Goulet, L. Tong, Y. Liu, Y. Ji, L. Wu, R. G. Gordon, M. J. Aziz, Z. Yang, T. Xu, A Long-Lifetime All-Organic Aqueous Flow Battery Utilizing TMAP-TEMPO Radical. Chem. 5, 1861-1870 (2019). […]

Consider `CC1(C)CC([N+](C)(C)C2CC(C)(C)N([O])C(C)(C)C2)CC(C)(C)N1[O]` [i-TEMPOD-1], for which, in series [1], the C1 is recorded as 264.7 uF, the Rct came to 17.43 Ohm and the Ru was found to be 27.54 Ohm. Besides, in series [2], the “crossover with the AMVN membrane” value was “no detectible crossover”. In addition, the “viscosity at a given volumetric capacity” value in series [3] is given as “nearly equal viscosity”.

These data come from patent US12525646B2, “Ionic cyclic nitroxyl radical oligomers” (Wisconsin Alumni Research Foundation, priority 2021, dated 2026).
